# Test system: Mycobacterium tuberculosis H37Rv strains
# Assay: In vitro assay for antimicrobial susceptibility (microplate Alamar blue MIC)
# Format: cell-based
# Conditions: Mycobacterium tuberculosis, H37RV, in vitro, Mycobacterium tuberculosis H37Rv strains; read-out: MIC (μg/mL) against H37Rv
row,Compound,MIC [µg/mL]
1,"Cc1ccc(Nc2cc3nc4ccccc4n(-c4ccc(F)cc4)c-3c/c2=N\C2CCN(CC(C)C)CC2)cn1 [TBI-904, 5-(4-Fluorophenyl)-3-(N-isobutyl-4-piperidyl)imino-2-(6-methyl-3-pyridyl)amino-3,5-dihydrophenazine]",0.016
2,"COc1ccc(Nc2cc3nc4ccccc4n(-c4ccc(C(F)(F)F)cc4)c-3c/c2=N\C2CCC2)cn1 [TBI-737, 5-(4-Trifluoromethylphenyl)-3-cyclobutylimino-2-(6-methoxy-3-pyridyl)amino-3,5-dihydrophenazine]",0.119
3,"COc1ccc2nc3cc(Nc4cccnc4OC)/c(=N/C4CCC(OC)CC4)cc-3n(-c3ccc(Cl)cc3)c2c1 (stereo not shown) [TBI-941, 7-Methoxy-5-(4-chlorophenyl)-3-(4-methoxycyclohexyl)imino-2-(2-methoxy-3-pyridyl)amino-3,5-dihydrophenazine]",0.06
4,"Cc1ccc(Nc2cc3nc4ccc(F)cc4n(-c4ccc(OC(F)(F)F)cc4)c-3c/c2=N\C(C)C)cn1 [TBI-854, 7-Fluoro-5-(4-trifluoromethoxyphenyl)-3-(1-methylethyl)imino-2-(6-methyl-3-pyridyl)amino-3,5-dihydrophenazine]",0.067
5,COc1ncccc1Nc1cc2nc3ccccc3n(-c3ccc(C)cc3)c-2c/c1=N\C1CCCCC1 [TBI-331],0.047
6,"Cc1ccc(Nc2cc3nc4ccccc4n(-c4ccc(Cl)c(Cl)c4)c-3c/c2=N\C2CCCCC2)cn1 [TBI-354, 5-(3,4-Dichlorophenyl)-3-cyclohexylimino-2-(6-methyl-3-pyridyl)amino-3,5-dihydrophenazine]",0.229
7,"Cc1ccc(-n2c3c/c(=N\C4CC4)c(Nc4ccc(C)nc4)cc-3nc3ccccc32)cc1 [TBI-340, 5-(4-Methylphenyl)-3-cyclopropylimino-2-(6-methyl-3-pyridyl)amino-3,5-dihydrophenazine]",0.149
8,"COc1ccc2nc3cc(Nc4ccc(C)nc4)/c(=N/C4CCCCC4)cc-3n(-c3ccc(Cl)cc3)c2c1 [TBI-869, 7-Methoxy-5-(4-chlorophenyl)-3-cyclohexylimino-2-(6-methyl-3-pyridyl)amino-3,5-dihydrophenazine]",0.056
9,"COc1ncccc1Nc1cc2nc3ccccc3n(-c3ccc(F)cc3)c-2c/c1=N\C1CCC1 [TBI-1016, 5-(4-Fluorophenyl)-3-cyclobutylimino-2-(2-methoxy-3-pyridyl)amino-3,5-dihydrophenazine]",0.037
10,"Cc1ccc(-n2c3c/c(=N\C4CCN(C)CC4)c(Nc4cccnc4)cc-3nc3ccccc32)cc1 [TBI-304, 5-(4-Methylphenyl)-3-(N-methyl-4-piperidyl)imino-2-(3-pyridinyl)amino-3,5-dihydro-phenazine]",0.25
11,"COc1ncccc1Nc1cc2nc3ccccc3n(-c3ccc(F)cc3)c-2c/c1=N\C1CCC(O)CC1 (stereo not shown) [TBI-1008, 5-(4-Fluorophenyl)-3-(4-hydroxycyclohexyl)imino-2-(2-methoxy-3-pyridyl)amino-3,5-dihydrophenazine]",0.248
12,"Fc1ccc(-n2c3c/c(=N\C4CCOCC4)c(Nc4cccnc4)cc-3nc3ccccc32)cc1F [TBI-1432, 5-(3,4-Difluorophenyl)-3-(4-tetrahydropyranyl)imino-2-(3-pyridyl)amino-3,5-dihydrophenazine]",0.088
13,"Cc1ccc(Nc2cc3nc4cc(F)ccc4n(-c4ccc(OC(F)(F)F)cc4)c-3c/c2=N\C(C)C)cn1 [TBI-863, 8-Fluoro-5-(4-trifluoromethoxyphenyl)-3-(1-methylethyl)imino-2-(6-methyl-3-pyridyl)amino-3,5-dihydrophenazine]",0.061
14,"CC(=O)Nc1ccc(Nc2cc3nc4ccccc4n(-c4ccc(F)cc4)c-3c/c2=N\[C@H]2CC[C@H](O)CC2)cn1 [TBI-917, 5-(4-Fluorophenyl)-3-(1′,4′-trans-4-hydroxycyclohexyl)imino-2-(6-acetamino-3-pyridyl)amino-3,5-dihydrophenazine]",1
15,FC(F)(F)Oc1ccc(-n2c3c/c(=N\CCN4CCOCC4)c(Nc4cccnc4)cc-3nc3ccccc32)cc1 [TBI-160],0.125
16,"Cc1ccc(-n2c3c/c(=N\C4CCN(CC(C)C)CC4)c(Nc4cccnc4C)cc-3nc3ccccc32)cc1 [TBI-325, 5-(4-Methylphenyl)-3-(N-isobutyl-4-piperidyl)imino-2-(2-methyl-3-pyridyl)amino-3,5-dihydrophenazine]",0.056
17,"Cc1ccc(-n2c3c/c(=N\C4CC4)c(Nc4cncc(C)c4)cc-3nc3ccccc32)cc1 [TBI-342, 5-(4-Methylphenyl)-3-cyclopropylimino-2-(5-methyl-3-pyridyl)amino-3,5-dihydrophenazine]",0.022
18,"COC1CCC(/N=c2\cc3n(-c4cccc(OC(F)(F)F)c4)c4ccccc4nc-3cc2Nc2cccnc2)CC1 (stereo not shown) [TBI-1024, 5-(3-Trifluoromethoxyphenyl)-3-(4-methoxycyclohexyl)imino-2-(3-pyridyl)amino-3,5-dihydrophenazine]",0.112
19,"Cc1ncccc1Nc1cc2nc3ccccc3n(-c3ccc(F)cc3)c-2c/c1=N\C1CCC(O)CC1 (stereo not shown) [TBI-1015, 5-(4-Fluorophenyl)-3-(4-hydroxycyclohexyl)imino-2-(2-methyl-3-pyridyl)amino-3,5-dihydrophenazine]",0.387
20,Cc1ccc(Nc2cc3nc4cc(F)ccc4n(-c4ccc(Cl)c(Cl)c4)c-3c/c2=N\C2CC2)cn1 [TBI-888],0.028
21,"FC(F)(F)Oc1cccc(-n2c3c/c(=N\C4CC4)c(Nc4cccnc4)cc-3nc3ccccc32)c1 [TBI-1021, 5-(3-Trifluoromethoxyphenyl)-3-cyclopropylimino-2-(3-pyridyl)amino-3,5-dihydrophenazine]",0.054
22,"COc1ncccc1Nc1cc2nc3ccccc3n(-c3ccc(C(F)(F)F)cc3)c-2c/c1=N\C(C)C [TBI-699, 5-(4-Trifluoromethylphenyl)-3-(1-methylethyl)imino-2-(2-methoxy-3-pyridyl)amino-3,5-dihydrophenazine]",0.029
23,"Fc1ccc(-n2c3c/c(=N\C4CCC4)c(Nc4cccnc4)cc-3nc3ccccc32)cc1F [TBI-526, 5-(3,4-Difluorophenyl)-3-cyclobutylimino-2-(3-pyridyl)amino-3,5-dihydrophenazine]",0.079
24,"Cc1ncccc1Nc1cc2nc3ccccc3n(-c3cccc(OC(F)(F)F)c3)c-2c/c1=N\C1CCCCC1 [TBI-1034, 5-(3-Trifluoromethoxyphenyl)-3-cyclohexylimino-2-(2-methyl-3-pyridyl)amino-3,5-dihydrophenazine]",0.059
25,"COc1ncccc1Nc1cc2nc3ccccc3n(-c3ccc(F)c(F)c3)c-2c/c1=N\C1CCCCC1 [TBI-531, 5-(3,4-Difluorophenyl)-3-cyclohexylimino-2-(2-methoxy-3-pyridyl)amino-3,5-dihydrophenazine]",0.03
26,"COc1ncccc1Nc1cc2nc3ccccc3n(-c3ccccc3OC(F)(F)F)c-2c/c1=N\C1CCC(OC)CC1 (stereo not shown) [TBI-1044, 5-(2-Trifluoromethoxyphenyl)-3-(4-methoxycyclohexyl)imino-2-(2-methoxy-3-pyridyl)amino-3,5-dihydrophenazine]",0.25
27,"Cc1cncc(Nc2cc3nc4ccccc4n(-c4ccccc4)c-3c/c2=N\C2CCCCC2)c1 [TBI-082, 5-Phenyl-3-cyclohexylimino-2-(5-methyl-3-pyridyl)amino-3,5-dihydrophenazine]",0.111
28,"Cc1cncc(Nc2cc3nc4ccccc4n(-c4ccc(F)cc4)c-3c/c2=N\C2CCOCC2)c1 [TBI-1028, 5-(4-Fluorophenyl)-3-(4-tetrahydropyranyl)imino-2-(5-methyl-3-pyridyl)amino-3,5-dihydrophenazine]",0.06
